{
  "source": "patent US7875436B2",
  "about": "(priority 2004, dated 2011)",
  "key": {"BoNTA [1]": {"target": "T1, BoNTA (Clostridium botulinum, UniProt P0DPI1)"}, "BoNTA [2]": {"target": "T1, BoNTA", "remark": "listed apart in the source"}, "BoNTA [3]": {"target": "T1, BoNTA", "remark": "listed apart in the source"}},
  "note": "“Also recorded” adds a separate entry of the source.",
  "data": [
    {"substance": "Ac IIGNLRHMALDMGNEIDTQNRQIDRIMEKADSNKTRIDEAN Nop R A Pya K Nle L NH2 [Substrate S9]", "values": [
      {"measurement": "BoNT/A concentration that can be quantified", "setting": "BoNTA [1]; pH 7.4", "result": 0.2, "unit": "ng/mL"},
      {"measurement": "parameters (Km, kcat, Vmax) for the hydrolysis, compared with SNAP 25", "setting": "BoNTA [2]", "result": "more favorable than for SNAP 25; also recorded: better than those reported for SNAP 25 itself and other substrates reported to date"},
      {"measurement": "metabolites formed on cleavage by BoNTA", "setting": "BoNTA [3]", "result": "only two metabolites formed"}
    ]},
    {"substance": "Ac-S-N-K-T-R-I-D-E-A-N-Pya-R-A-Nop-K-Nle-L-NH2 [Pya^197Nop^200(187-203)SNAP25]", "values": [
      {"measurement": "cleavage by the toxin BoNT/A", "setting": "BoNTA [1]", "result": "weakly cleaved"}
    ]},
    {"substance": "ethylene diamine tetracetate [EDTA]", "values": [
      {"measurement": "effect on fluorescence emitted by degradation of substrate S1 by BoNT/A (enzymatic activity)", "setting": "BoNTA [1]", "result": "inhibition of the fluorescence"}
    ]}
  ]
}
